Patent US10624917B2, “Compositions and methods useful for treating or preventing liver diseases or disorders, and promoting weight loss” (YALE UNIVERSITY, priority 2014, dated 2020)
Entries after “also recorded” stand apart in the source; their conditions may differ.

Legend:
in vivo = conditions: mouse, 1 mg/kg
Description: FIG. 19 is a bar graph illustrating plasma digoxin levels in mice. Saline or digoxin were daily injected in mice at a dose of 1.0 mg/kg. Plasma digoxin levels measured 24 hours after the final injection were at or below the therapeutic range for humans (0.8-2 ng/mL).
(§1) C57BL/6J male mice were placed on a 45% high-fat diet (HFD) for […] with and without digoxin (ip 1 mg/kg twice a week). Digoxin, 1 mg/kg ip daily, in mice results in the therapeutic serum levels achieved in humans (0.5-2 ng/ml). Plasma ALT, liver histology, neutrophil staining, leukocytes profiling, mitochondrial reactive oxygen species (ROS) generation, and gene transcriptome microarrays were analyzed. The ability of digoxin to inhibit inflammasome in mouse and human macrophages was tested. The chronic plus binge model of alcoholic hepatitis and LPS/D-GalN hepatitis models were also performed.

[1] = system: C57BL/6 mice on high-fat diet; assay: High-fat diet (HFD) NASH model; assay type: in vivo, mouse
Description: FIGS. 21A-21C illustrate the finding that digoxin reduces liver damage, inflammation, glycolysis and total cholesterol. FIG. […] The liver tissues were performed by H & E staining, and the neutrophils were stained with CD11b/Ly6G double positive cells by FACS. Data are expressed as the mean±SD from 5 mice in each treatment group. *p<0.05 determined by Student's t-test. […] Data are expressed as the mean±SD from 5 mice in each treatment group. *p<0.05 determined by Student's t-test. FIG. 21C: The liver total RNA were isolated from as procedure from FIG. 21a, and subjected to illumina transcriptome analysis. Over 15 genes that most highly expressed were listed. Data are expressed as the mean±SD from 3 mice in each treatment group
FIGS. 22A-22D illustrate the finding that digoxin reduces high fat feeding induced obesity in mice. Wild type C57BL/6 mice were supplied with high-fat diet food (Research diets D12451 45% fat) for 12 weeks with or without the concurrent IP injection of Digoxin (twice a week, 1.0 mg/kg) or PBS control. The body weight was carefully monitored as the change of each 3 day's average. […] FIG. 22A illustrates examples of mice on high-fat diet with (DIG) and without (Ctrl) digoxin. […] The ratio of white adipose tissue and bodyweight after 12 weeks is shown (FIG. 22C). […] Data are expressed as the mean±SD from 5 mice in each treatment group. *p<0.05 determined by Student's t-test.
FIGS. 24A-24G illustrate the finding that digoxin limits hepatic steatosis and inflammation. […] The liver tissues were applied for H & E staining, and graphs show quantification of NAFLD histological activity score (FIGS. 24A-24B). The liver tissue inflammation was also determined by the neutrophil and monocyte infiltration, which measured by CD11b/Ly6G and CD11b/Ly6C double positive cells using FACS ([…]). Representative FACS flows from digoxin versus saline control are shown (FIGS. 24F-24G). The quantification of neutrophils and monocytes in digoxin versus saline control was performed. Serum ALT level in digoxin versus saline control was measured (FIGS. 24C-24D). The steatosis maker of triacylglcerol (TG) accumulation in the lever after digoxin treatment versus saline control was determined (FIG. 24E). All data throughout the figure are shown as the mean±SD from 5 mice in each group. Statistical significance was determined by one-way ANOVA. *p<0.05, **p<0.01 for each digoxin group versus saline control.
as §1

[2] = system: C57BL/6 mice challenged with LPS/D-galactosamine; assay: LPS/D-GalN hepatitis (acute liver injury) model; assay type: in vivo, mouse
Description: FIGS. 23A-23D illustrate the finding that digoxin protects the severity of experimental acute liver failure. Digoxin was administrated intraperitoneally to C57BL/6 mice at dose level of 2, 1, 0.2, 0.05 mg/kg body weight and saline control for 1 hour, and then the mice were challenged with LPS (1 mg/kg body weight)/D-galactosamine (D-GalN) for 5 hours. The morphology of liver tissue was determined by H & E staining, and the inflammation was determined by the neutrophil infiltration of Gr-1 antibody staining Representative H & E stains (FIG. 23A, upper), and Gr-1 (FIG. 23A, lower) positive area of liver sections (original magnification ×100) from digoxin and saline control are illustrated. Graphs show quantification of injured (FIG. 23B) or Gr-1 (FIG. 23C) positive area by morphometry using Image J. *p<0.05 for each dosage of digoxin group versus saline control. The activity of the hepatic injury marker alanine transaminase (ALT) in serum level from digoxin versus saline control was measured (FIG. 23 D). All data throughout the figure are shown as the mean±SD. Statistical significance was determined by one-way ANOVA.
FIGS. 25A-25H illustrate the finding that digoxin alleviates hepatic oxidative stress and inflammasome activation. C57BL/6 mice were injected intraperitoneally with digoxin (1 mg/kg) and PBS control for 1 hour, and then challenged with LPS (1 mg/kg)/D-GlaN (500 mg/kg) for 5 h; C57BL/6 mice were on HFD with concurrent intraperitoneal injection of digoxin (1 mg/kg) for 12 weeks. The cellular oxidative stress and intracellular ROS production was monitored by intraperitoneal injection of DHE in last 30 min before the mice sacrificed. Representative DHE stains in LPS/D-GlaN (FIG. 25A) and HFD (FIG. 25B) from digoxin versus saline control are illustrated. The quantification of DHE positive area in digoxin versus saline control was performed (FIG. 25A, lower, and FIG. 25B, lower). The total RNA from liver tissue was isolated, and applied for gene expression of proIL-1β, TNFα, NLRP3 and HIF1a (FIGS. 25C-25F). The total liver protein was applied for protein expression of HIF1α, caspase-1, proIL-1β by western blot (FIG. 25H). The serum IL-1β was measured by ELISA (FIG. 25G). All data throughout the figure are shown as the mean±SD from 5 mice in each group. Statistical significance was determined by one-way ANOVA. *p<0.05, **p<0.01 for each digoxin group versus saline control.
as §1

[3] = system: mice, chronic plus binge model of alcoholic hepatitis; assay: Chronic plus binge model of alcoholic hepatitis; assay type: in vivo, mouse
Description: as §1

mouse macrophages = assay: Mitochondrial ROS production in mouse macrophages; assay type: cell-based; conditions: TLR and hydrogen peroxide stimulation
human macrophages = assay: Mitochondrial ROS production in human macrophages; assay type: cell-based; conditions: TLR and hydrogen peroxide stimulation
[4] = system: IL-1β secretion and caspase-1 activation in mouse macrophages; assay: Inflammasome inhibition in mouse macrophages; assay type: cell-based
Description: as §1

[5] = HFD 12 weeks, IP twice a week 1.0 mg/kg
[6] = HFD 12 weeks, ip 0.2 and 0.05 mg/kg twice a week, low dose-dependent manner
[7] = ip 1 mg/kg, LPS/D-GlaN (5 h) and HFD (12 weeks) mice
[8] = twice, a quarter and a twentieth of the human equivalent dose

## C[C@H]1O[C@@H](O[C@@H]2[C@@H](O)C[C@H](O[C@@H]3[C@@H](O)C[C@@H](O[C@H]4CC[C@@]5(C)[C@H](CC[C@@H]6[C@@H]5C[C@@H](O)[C@]5(C)C(C7=CC(=O)OC7)CC[C@]65O)C4)O[C@@H]3C)O[C@@H]2C)C[C@H](O)[C@H]1O (stereo partly drawn) [digoxin, 4-[(3S,5R,8R,9S,10S,12R,13S,14S)-3-[(2S,4S,5R,6R)-5-[(2S,4S,5R,6R)-5-[(2S,4S,5R,6R)-4,5-dihydroxy-6-methyl-oxan-2-yl]oxy-4-hydroxy-6-methyl-oxan-2-yl]oxy-4-hydroxy-6-methyl-oxan-2-yl]oxy-12,14-dihydroxy-10,13-dimethyl-1,2,3,4,5,6,7,8,9,11,12,15,16,17-tetradecahydrocyclopenta[a]phenanthren-17-yl]-5H-furan-2-one]
In vivo
  concentration at 24 h: 0.8 to 2 ng/mL
In vivo; ip
  concentration at 24 h: 0.5 to 2 ng/mL
[1]; HFD 12 weeks, 1 mg/kg twice a week
  fat deposition (liver oil red, TG content): reduces
[1]; [5]
  glycolysis: reduces
  high fat feeding induced obesity: reduces
  liver damage: reduces
  serum total cholesterol: reduces
[1]; [6]
  hepatic steatosis: limits
  liver inflammation: limits
[1]; HFD liver
  signal genes of ROS metabolism, antioxidant pathway and glycolysis (microarray): down-regulated
[1]; HFD+DIG, HFD alone 417±398 U/L, P<0.001
  serum ALT: 91±73 U/L
[1]; HFD, IP twice a week 1 mg/kg
  liver inflammation: reduces; also recorded: limits
[1]; HFD, ip 1 mg/kg twice a week
  hepatic steatosis: limits
  histological injury: reduced
  neutrophilic infiltrate: reduced
[1]; digoxin started after 4 weeks HFD
  liver inflammation: significant reduction
[1]; digoxin started after 4 weeks HFD, HFD alone 24.6%
  liver neutrophil: 14.3%
[1]; digoxin started after 4 weeks HFD, HFD alone 31.6%
  liver monocytes: 19.1%
[1]; mice on HFD
  body weight / weight gain: less weight gain; also recorded: changes
[2]; LPS/D-GalN hepatitis
  histological injury: reduced
  neutrophilic infiltrate: reduced
  serum ALT: lower
[2]; [7]
  hepatic oxidative stress: alleviates
  inflammasome activation: alleviates
[2]; ip 2, 1, 0.2, 0.05 mg/kg 1 hour before LPS/D-GalN for 5 hours
  severity of experimental acute liver failure: protects
[2]; mouse, in vivo
  inflammation in an acute liver injury model: inhibits
[2]; [8]
  HIF-1α protein: reduction
  IL-1β protein: reduction
  cleaved (P10) caspase-1 protein: reduction
  liver HIF-1α transcripts: reduction
  liver Pro-IL-1β transcripts: reduction
  liver hemorrhage and necrosis: improvement
  pro-IL-1β protein: reduction
[3]
  histological injury: reduced
  neutrophilic infiltrate: reduced
  serum ALT: lower
Mouse macrophages
  mitochondrial ROS production: dose-dependently inhibited
Human macrophages
  mitochondrial ROS production: dose-dependently inhibited
[4]
  IL-1 β secretion: inhibited
  caspase-1 activation: inhibited
